The source of these data is patent publication EP0821955B1 (priority 1996, dated 1998).

For one experiment, the target named is m4 receptors (Homo sapiens, UniProt P08173). In kind it is cell-based. The following applies: Chinese Hamster Ovary (CHO) m4 cells treated with pertussis toxin.
Experiment [1] concerns the target muscarinic cholinergic receptors. Nature of the experiment: ^3H-oxotremorine-M binding study. The note with it: inhibition of the binding of ^3H-oxotremorine-M; read-out: inhibition constant (Ki).

Sequence of m4 receptors (P08173 whole entry): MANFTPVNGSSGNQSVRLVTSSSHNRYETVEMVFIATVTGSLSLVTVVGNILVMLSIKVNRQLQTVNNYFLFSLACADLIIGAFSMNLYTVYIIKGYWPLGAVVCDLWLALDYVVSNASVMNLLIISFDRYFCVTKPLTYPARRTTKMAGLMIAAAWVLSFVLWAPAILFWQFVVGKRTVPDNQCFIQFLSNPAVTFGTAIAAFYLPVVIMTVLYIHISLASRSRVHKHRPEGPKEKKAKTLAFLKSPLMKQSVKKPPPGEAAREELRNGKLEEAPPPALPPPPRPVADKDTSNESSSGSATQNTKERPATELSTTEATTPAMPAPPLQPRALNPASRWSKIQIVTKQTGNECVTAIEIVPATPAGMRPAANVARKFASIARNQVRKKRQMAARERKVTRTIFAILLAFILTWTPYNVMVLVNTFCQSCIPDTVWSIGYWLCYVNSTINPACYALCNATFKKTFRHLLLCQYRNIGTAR

The term Ki denotes the dissociation constant of the complex between target and ligand, obtained from inhibition or displacement. As to `CCCCCCOc1nsnc1C1=CCCN(C)C1` [xanomeline, 3-(4-hexyloxy-1,2,5-thiadiazol-3-yl)-1,2,5,6-tetrahydro-1-methylpyridine], the “formation of cAMP” value on m4 receptors is “efficaciously and potently stimulated the formation of cAMP”. For the same molecule, the inhibition constant Ki in experiment [1] came to 2 nM.
